Consider one molecule from ChEMBL document CHEMBL5034023, “Development of Multifunctional and Orally Active Cyclic Peptide Agonists of Opioid/Neuropeptide FF Receptors that Produce Potent, Long-Lasting, and Peripherally Restricted Antinociception with Diminished Side Effects” (J Med Chem, 2021).

Data set [1] has as its system Mus musculus. As to the kind of experiment: Antinociceptive activity against Kunming mouse model of thermal-induced nociception assessed as prolongation of tail-flick latency period at 8.68 nmol/kg, sc in presence of NALM at 5 nmol/kg, icv measured up to 240 mins by tail-flick test. Format: functional, organism-based. The following applies: time min <=240.
A short description of data set [2]: Clearance in Kunming mouse at 868.1 nmol/kg, po measured up to 120 mins by LC-MS/MS analysis. It counts as ADME, organism-based. The settings on record: in vivo.
Data set [3] can be described thus: Half life in Kunming mouse at 868.1 nmol/kg, iv measured up to 120 mins by LC-MS/MS analysis. It counts as ADME, organism-based. The following applies: in vivo.
Data set [4] can be described thus: Clearance in Kunming mouse at 868.1 nmol/kg, iv measured up to 120 mins by LC-MS/MS analysis. It counts as ADME, organism-based. The settings on record: in vivo.

The source made the active and inactive calls. Bridge positions count the residues as written; N and C are the ends. Square brackets hold non-standard residues; d marks the D form. Peptide text beside a SMILES is read from it. NMeF = CN[C@@H](Cc1ccccc1)C(=O)O

For `CN1C(=O)CNC(=O)[C@H](NC(=O)[C@@H](N)Cc2ccc(O)cc2)CCCCNC(=O)C[C@@H](C(=O)N2CCC[C@H]2C(=O)N[C@@H](CCC(N)=O)C(=O)N[C@@H](CCCNC(=N)N)C(=O)N[C@@H](Cc2ccccc2)C(N)=O)NC(=O)[C@@H]1Cc1ccccc1` (H-Y[dK]G[NMeF]DPQRF-NH2; lactam 2-5), in data set [1], the outcome was Active. In data set [2], the CL/F (in general, clearance divided by bioavailability, as obtained after extravascular dosing) came out at 130 mL/min/kg. In data set [3], the half-life (as a rule, the time needed for the level to fall by half in the phase considered) was found to be 28.1 min. For the same molecule, the clearance (commonly the rate of elimination divided by the concentration) in data set [4] was 30 mL/min/kg.
